The values that follow come from patent publication US20140057915A1, “KINASE INHIBITORS” (TOPIVERT PHARMA LIMITED, priority 2012, published 2014).

Structures are written as SMILES.

The subject of test [1] is TNFα release, d-U937 cells. Put plainly: LPS-induced TNFα release in d-U937 cells. Particulars: Homo sapiens, dU937; for EC50: relative to 10 μg/mL BIRB796, Table 4c1, read-out: LPS Induced Release of Cytokine in d-U937 Cells, TNFα REC50. The test is classed as cell-based. In outline: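 Sandwich ELISA quantifies cytokine in supernatants after 4 hr LPS challenge (0.1 μg/mL) of PMA-differentiated (100 ng/mL, 48–72 hr) U937 macrophages given compound 2 hr beforehand. REC50 derived from concentration-response curve, inhibition calculated relative to vehicle.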

Another test deals with HRV16 in MRC5 cells. The experiment in a line: HRV16 induced CPE in MRC5 cells. Particulars: Human rhinovirus sp., HRV-16. It is filed as cell-based. A digest of the protocol: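 MRC-5 cells pre-treated with compound 2 hr, infected with HRV16 at MOI 1 (DMEM, 5% FCS, 1.5 mM MgCl2) for 1 hr at 33 °C, then re-dosed after virus washout and cultured 4 days.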
The test system of a further test is PBMC cells. The experiment in a line: Cell mitosis assay. To be noted: Homo sapiens, read-out: % Inhibition of mitosis in PBMC cells at 5 μg/mL. The test is classed as cell-based. A digest of the protocol: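 Healthy-donor PBMCs (3 million cells per sample) stimulated with 2% PHA for 48 hr, then exposed 20 hr to varying compound concentrations. Demecolcine (0.1 μg/mL) added 2 hr before collection to arrest cells in metaphase; read by flow cytometry gated on lymphocytes.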

The target of the next test is Syk (Homo sapiens, UniProt P43405). The experiment in a line: Syk enzyme inhibition (FRET). To be noted: Table 4a1. It is filed as biochemical. In outline: (§1)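 Kinase activity is measured on a dual-labelled synthetic peptide by FRET. ATP is supplied as an 800 μM solution for c-Src and a 60 μM solution for Syk. Compound is tested at four added concentrations, 4 to 0.004 μg/mL.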

Test [2] relates to ICAM-1 expression, BEAS2B cells. The experiment in a line: Poly I:C-induced ICAM-1 expression in BEAS2B cells. The test is classed as cell-based. Particulars: Homo sapiens, BEAS-2B; read-out: Poly IC induced ICAM1 in BEAS2B, IC50. In outline:
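Cell-based ELISA for surface ICAM-1 in human BEAS2B cells 18 h after transfection with the RNA-virus mimic poly I:C (1 μg/mL, with Oligofectamine), compounds added 2 h beforehand. OD450–655 divided by Crystal Violet OD595 per well; percent inhibition relative to vehicle.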

In test [3] the test system is IL-8 release, d-U937 cells. The experiment in a line: LPS-induced IL-8 release in d-U937 cells. The test is classed as cell-based. Particulars: Homo sapiens, dU937; Table 4c1; read-out: LPS Induced Release of Cytokine in d-U937 Cells, IL-8 IC50. In outline: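 IL-8 release after a 4 hr challenge with LPS (0.1 μg/mL, E. coli 0111:B4) following a 2 hr compound pretreatment. Cells were human U937 monocytes differentiated to macrophage-type with PMA 100 ng/mL for 48–72 hr. Relative 50% effective concentration derived from concentration–response data.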

The next test addresses cSrc (Homo sapiens, UniProt P12931). Put plainly: c-Src enzyme inhibition (FRET). The test is classed as biochemical. A digest of the protocol:
as §1

Chain of cSrc (P12931 whole entry): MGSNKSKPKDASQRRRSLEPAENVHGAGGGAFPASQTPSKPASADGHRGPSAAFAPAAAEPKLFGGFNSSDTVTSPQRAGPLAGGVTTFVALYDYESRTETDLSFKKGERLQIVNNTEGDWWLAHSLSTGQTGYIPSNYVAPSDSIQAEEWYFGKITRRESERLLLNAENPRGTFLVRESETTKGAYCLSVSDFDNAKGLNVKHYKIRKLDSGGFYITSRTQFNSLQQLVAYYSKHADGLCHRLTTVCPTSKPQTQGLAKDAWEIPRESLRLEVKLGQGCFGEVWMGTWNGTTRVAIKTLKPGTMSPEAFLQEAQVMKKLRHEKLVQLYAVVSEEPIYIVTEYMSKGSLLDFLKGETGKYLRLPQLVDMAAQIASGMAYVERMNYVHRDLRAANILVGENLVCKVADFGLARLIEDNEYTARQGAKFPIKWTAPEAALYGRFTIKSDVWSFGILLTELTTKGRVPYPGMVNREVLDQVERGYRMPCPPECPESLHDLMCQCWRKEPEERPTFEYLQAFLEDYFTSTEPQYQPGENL

Broadly, the IC50 is the midpoint of a concentration-inhibition curve. Regarding `COc1cc(Nc2nccc(Oc3ccc(NC(=O)Nc4cc(C5(C)CC5)nn4-c4ccc(C)cc4)c4ccccc34)n2)cc(C(=O)NCCN2CCOCC2)c1` [Example 51, 3-methoxy-5-((4-((4-(3-(3-(1-methylcyclopropyl)-1-(p-tolyl)-1H-pyrazol-5-yl)ureido)naphthalen-1-yl)oxy)pyrimidin-2-yl)amino)-N-(2-morpholinoethyl)benzamide], the EC50 in test [1] was 1 nM. For the same compound, the IC50 with HRV16 in MRC5 cells was 1.9 nM; against Syk, 649 nM; in test [2], 3.6 nM; in test [3], 0.6 nM; against cSrc (Table 4a1), below 1 nM. The inhibition at 5 µg/mL in the test with PBMC cells turned out to be 20%.

For the compound `COc1ccc(-n2nc(C(C)C)cc2NC(=O)Nc2ccc(Oc3ccnc(Nc4cc(OC)cc(C(=O)NCCN5CCOCC5)c4)n3)c3ccccc23)cc1` [Example 53, 3-((4-((4-(3-(3-isopropyl-1-(4-methoxyphenyl)-1H-pyrazol-5-yl)ureido)naphthalen-1-yl)oxy)pyrimidin-2-yl)amino)-5-methoxy-N-(2-morpholinoethyl)benzamide], the IC50 in test [1] (Table 4c2, different laboratory, read-out: IC50 Values for Inhibition of Cytokine Release, dU937 cells, TNFα) was 0.7 nM; with HRV16 in MRC5 cells, 2 nM; against Syk, 3 nM; in test [2], 4 nM; in test [3], 1.1 nM; at cSrc (Table 4a1), below 1 nM. In addition, inhibition against cSrc (Table 4a2, different laboratory) was half-maximal at 8 nM (IC50). For the same compound, in test [1], the EC50 stood at 0.3 nM. In addition, the inhibition at 5 µg/mL in the test with PBMC cells amounted to 39.4%.
